Results as given in paper PMC5872116, “Screening of E. coli β-clamp Inhibitors Revealed that Few Inhibit Helicobacter pylori More Effectively: Structural and Functional Characterization” (Antibiotics, 2018).

Columns and labels:
Hpβ-clamp [1] = molecular target: T1, Hpβ-clamp (Helicobacter pylori, UniProt O25242); test: SPR surface competition with HpDNA ligase, immobilised Hpβ-clamp (qualitative); type: binding; settings: competitive with HpDNA ligase; HBS-EP pH 7.4, 2% DMSO
T1 construct: gene dnaN; recombinant, expressed in E. coli BL21, Ni-NTA and gel filtration purified (His-tag implied); homodimer
T1 sequence (O25242 1-374): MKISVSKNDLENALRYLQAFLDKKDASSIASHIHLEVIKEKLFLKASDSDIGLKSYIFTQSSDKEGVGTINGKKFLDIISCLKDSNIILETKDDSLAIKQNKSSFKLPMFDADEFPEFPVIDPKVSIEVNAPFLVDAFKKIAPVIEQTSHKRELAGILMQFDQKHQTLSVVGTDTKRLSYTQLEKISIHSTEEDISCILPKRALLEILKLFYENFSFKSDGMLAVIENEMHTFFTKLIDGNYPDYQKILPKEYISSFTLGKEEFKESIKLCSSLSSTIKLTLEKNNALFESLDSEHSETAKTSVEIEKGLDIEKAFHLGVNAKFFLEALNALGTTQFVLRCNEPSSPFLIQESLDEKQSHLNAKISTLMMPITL

Hpβ-clamp [2] = molecular target: T1, Hpβ-clamp; test: co-crystal structure ([…] Å); also SPR surface competition with HpDNA ligase; type: binding; settings: subsite I of protein-protein interaction site; competitive with HpDNA ligase

Structure (SMILES)	SPR surface competition with HpDNA ligase, immobilised Hpβ-clamp (qualitative) (Hpβ-clamp [1])	co-crystal structure (1.97 Å); also SPR surface competition with HpDNA ligase (Hpβ-clamp [2])
O=[N+]([O-])c1ccc2cn[nH]c2c1 [C2, 6-nitroindazole]	All five shortlisted molecules showed competitive binding to β-clamp.	–
O=[N+]([O-])c1ccc2[nH]ccc2c1 [C4, 5-nitroindole]	All five shortlisted molecules showed competitive binding to β-clamp.	–
C[C@H](C(=O)O)c1ccc2c(c1)[nH]c1ccc(Cl)cc12 [C3, (S)-carprofen]	–	5FXT (Hpβ-clamp complex with carprofen, C3)
